In US8901307B2, “Chemical compounds 251” (AstraZeneca AB, priority 2008, dated 2014):
Where a name gives a salt, the structure may show the parent alone.

How the values were obtained:
human His-PIM1 [2-313] = target: T1, human His-PIM1 [2-313] (Homo sapiens, UniProt P11309); experiment: PIM1 in-vitro mobility shift assay (Caliper LC3000, FL-Ahx-Bad phosphorylation); type: biochemical; details: 1.5 h; percent inhibition at 0.3 uM compound; read-out: PIM1 % I at 0.3 uM
T1 construct: purified human His-PIM1 [2-313] enzyme; His (N); purchased University of Dundee, Scotland; host or cells: baculovirus system
T1 sequence (P11309 2-313): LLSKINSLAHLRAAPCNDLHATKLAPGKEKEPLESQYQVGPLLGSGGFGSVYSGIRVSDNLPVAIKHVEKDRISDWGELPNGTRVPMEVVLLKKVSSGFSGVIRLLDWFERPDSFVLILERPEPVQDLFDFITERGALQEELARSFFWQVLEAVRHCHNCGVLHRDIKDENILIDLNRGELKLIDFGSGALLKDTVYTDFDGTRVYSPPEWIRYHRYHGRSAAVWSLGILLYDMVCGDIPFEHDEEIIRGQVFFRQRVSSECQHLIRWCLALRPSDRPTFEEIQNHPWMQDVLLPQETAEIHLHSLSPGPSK
In short: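 Compound preincubated 20 min at 25 °C with 2.4 nM PIM1, 3.6 µM FL-Ahx-Bad peptide and 240 µM ATP (1.2× mix concentrations). Reaction started with 24 mM MgCl2 mix, run 90 min at 25 °C, EDTA-stopped. Phospho/unphospho peptide separated by microfluidic mobility shift; percent inhibition from ratiometric turnover.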

human His-PIM2 [23-299] = target: T2, human His-PIM2 [23-299] (Homo sapiens, UniProt Q9P1W9); experiment: PIM2 in-vitro mobility shift assay (Caliper LC3000, FL-Ahx-Bad phosphorylation); type: biochemical; details: 1.5 h; percent inhibition at 0.3 uM compound; read-out: PIM2 % I at 0.3 uM
T2 construct: purified human His-PIM2 [23-299] enzyme; His (N); host or cells: E. coli
T2 sequence (Q9P1W9 23-299): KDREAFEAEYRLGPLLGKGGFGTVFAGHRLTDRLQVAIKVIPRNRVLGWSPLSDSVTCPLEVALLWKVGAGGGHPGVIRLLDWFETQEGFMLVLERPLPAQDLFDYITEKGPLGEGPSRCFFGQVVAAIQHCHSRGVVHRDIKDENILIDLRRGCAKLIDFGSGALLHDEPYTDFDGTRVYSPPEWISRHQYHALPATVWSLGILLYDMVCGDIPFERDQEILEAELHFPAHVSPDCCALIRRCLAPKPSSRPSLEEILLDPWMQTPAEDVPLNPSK

inhibition at 0.3 µM (human His-PIM1 [2-313])	inhibition at 0.3 µM (human His-PIM2 [23-299])	Structure (SMILES)
> 95%	89.8%	COc1cc(/C=C2\SC(=O)NC2=O)c(N2CC[C@H](N(C)C)C2)cc1OC [Example 40, (S,Z)-5-(2-(3-(dimethylamino)pyrrolidin-1-yl)-4,5-dimethoxybenzylidene)thiazolidine-2,4-dione]
55.1%	18.6%	Cn1ccc(C(=O)N[C@H]2CCN(c3c(Cl)cccc3/C=C3\SC(=O)NC3=O)C2)n1 [Example 137]
> 95%	> 95%	NCCC(=O)N1CCN(c2ccccc2/C=C2\SC(=O)NC2=O)CC1 [Example 129A]
13.9%	< 5%	Cc1noc(C2CCCN(c3c(Cl)cc(C(F)(F)F)cc3/C=C3\SC(=O)NC3=O)C2)n1 (centres unmarked) [Example 16]
> 95%	92.4%	NCCC(=O)N1CCCN(c2ccccc2/C=C2\SC(=O)NC2=O)CC1 [Example 105, (Z)-5-(2-(4-(3-aminopropanoyl)-1,4-diazepan-1-yl)benzylidene)thiazolidine-2,4-dione hydrochloride]
> 95%	90.8%	CN(C)[C@H]1CCN(c2ccc(F)cc2C=C2SC(=O)NC2=O)C1 [Example 84K, (S)-5-(2-(3-(dimethylamino)pyrrolidin-1-yl)-5-fluorobenzylidene)thiazolidine-2,4-dione]
> 95%	> 95%	CC1CCN(c2c(Cl)cccc2/C=C2\SC(=O)NC2=O)CC1N (centres unmarked) [Example 122V, (Z)-5-(2-(3-amino-4-mnethylpiperidin-1-yl)-3-chlorobenzylidene)thiazolidine-2,4-dione hydrochloride]
85%	52.1%	COc1ccc(OCCCN)c(C=C2SC(=O)NC2=O)c1 [Example 129C]
41.9%	9%	O=C1NC(=O)/C(=C/c2n[nH]c3ccccc23)S1 [Example 68, (Z)-5-((1H-indazol-3-yl)methylene)thiazolidine-2,4-dione]
> 95%	79.6%	NCC1CCCN(c2c(Cl)cc(C(F)(F)F)cc2/C=C2\SC(=O)NC2=O)C1 (centres unmarked) [Example 4]
< 5%	< 5%	O=C1NC(=O)/C(=C/c2cn[nH]c2)S1 [Example 71, (Z)-5-((1H-pyrazol-4-yl)methylene)thiazolidine-2,4-dione]
< 5%	6.6%	COc1cc(/C=C2\SC(=O)NC2=O)ccc1OCCN1CCCCC1 [Example 59, (Z)-5-(3-methoxy-4-(2-(piperidin-1-yl)ethoxy)benzylidene)thiazolidine-2,4-dione]
74%	25.1%	COc1cc(/C=C2\SC(=O)NC2=O)c(N2CCC(CO)CC2)cc1OC [Example 41, (5Z)-5-{2-[4-(hydroxymethyl)piperidin-1-yl]-4,5-dimethoxybenzylidene}-1-,3-thiazolidine-2,4-dione]
> 95%	> 95%	CCOc1cccc(/C=C2\SC(=O)NC2=O)c1N1CC[C@H](N)C1 [Example 122Q, (S,Z)-5-(2-(3-aminopyrrolidin-1-yl)-3-ethoxybenzylidene)thiazolidine-2,4-dione hydrochloride]
27.8%	< 5%	O=C1NC(=O)/C(=C/c2cccc(OCCCN3CCCCC3)c2)S1 [Example 84D, (Z)-5-(3-(3-(piperidin-1-yl)propoxy)benzylidene)thiazolidine-2,4-dione]
> 95%	> 95%	COc1cc(/C=C2\SC(=O)NC2=O)c(N2CCC(N)C2)cc1OC (centres unmarked) [Example 118, (5Z)-5-[2-(3-aminopyrrolidin-1-yl)-4,5-dimethoxybenzylidene]-1,3-thiazolidine-2,4-dione hydrochloride]
> 95%	81.5%	O=C1NC(=O)/C(=C/c2cc(C(F)(F)F)ccc2N2CCN(C(=O)C3CCCNC3)CC2)S1 (centres unmarked) [Example 92, (Z)-5-(2-(4-(piperidine-3-carbonyl)piperazin-1-yl)-5-(trifluoromethyl)benzylidene)thiazolidine-2,4-dione hydrochloride]
> 95%	38.3%	CN1CCC(N2CCN(c3c(Cl)cc(C(F)(F)F)cc3/C=C3\SC(=O)NC3=O)CC2)CC1 [Example 19]
74.3%	36.4%	CC(=O)NCC(=O)N[C@H]1CCN(c2c(Cl)cccc2/C=C2\SC(=O)NC2=O)C1 [Example 147]

inhibition at 0.3 µM (human His-PIM1 [2-313])	inhibition at 0.3 µM (human His-PIM2 [23-299])	Structure (SMILES)
94%	31.9%	CN1CCN(c2c(Cl)cc(C(F)(F)F)cc2/C=C2\SC(=O)NC2=O)CC1 [Example 32]
> 95%	67.1%	N[C@H]1CCN(c2ccccc2/C=C2\SC(=O)NC2=O)C1 [Example 122X, (S,Z)-5-(2-(3-aminopyrrolidin-1-yl)benzylidene)thiazolidine-2,4-dione hydrochloride]
73.3%	52%	O=C(Cc1ccncc1)N[C@H]1CCN(c2c(Cl)cccc2/C=C2\SC(=O)NC2=O)C1 [Example 140]
> 95%	> 95%	NCCN1CCN(c2ccccc2/C=C2\SC(=O)NC2=O)CC1 [Example 112, (Z)-5-(2-(4-(2-aminoethyl)piperazin-1-yl)benzylidene)thiazolidine-2,4-dione hydrochloride]
> 95%	> 95%	N[C@H]1CCN(c2c(Cl)cc(C(F)(F)F)cc2/C=C2\SC(=O)NC2=O)C1 [Example 5B]
92.9%	54.3%	CN1CCN(c2ccccc2/C=C2\SC(=O)NC2=O)CC1 [Example 84A, (5Z)-5-[2-(4-methylpiperazin-1-yl)benzylidene]-1,3-thiazolidine-2,4-dione]
> 95%	> 95%	O=C1NC(=O)/C(=C/c2ccccc2N2CCN(C(=O)C3CNC3)CC2)S1 [Example 117, (5Z)-5-{2-[4-(azetidin-3-ylcarbonyl)piperazin-1-yl]benzylidene}-1,3-thiazolidine-2,4-dione hydrochloride]
50%	26.3%	CN(C)CCN(C)c1ccccc1/C=C1\SC(=O)NC1=O [Example 47, (5Z)-5-{2-[[2-(dimethylamino)ethyl](methyl)amino]benzylidene}-1,3-thiazolidine-2,4-dione]
87.6%	19.7%	O=C1NC(=O)/C(=C/c2cc(C(F)(F)F)cc(Cl)c2N2CCN(CCCO)CC2)S1 [Example 23]
> 95%	> 95%	NCCCN[C@@H]1CCCN(c2c(Cl)cccc2/C=C2\SC(=O)NC2=O)C1 [Example 129B]
> 95%	> 95%	NCCC(=O)N1CCN(c2c(Cl)cccc2/C=C2\SC(=O)NC2=O)CC1 [Example 95, (Z)-5-(2-(4-(3-aminopropanoyl)piperazin-1-yl)-3-chlorobenzylidene)thiazolidine-2,4-dione hydrochloride]
35.4%	11.3%	O=C1NC(=O)/C(=C/c2ccccc2OCCO)S1 [Example 60, (Z)-5-(2-(2-hydroxyethoxy)benzylidene)thiazolidine-2,4-dione]
89.4%	17.9%	CC(C)N1CCN(c2c(Cl)cc(C(F)(F)F)cc2/C=C2\SC(=O)NC2=O)CC1 [Example 11]
81.2%	49%	COc1cc(/C=C2\SC(=O)NC2=O)c(N2CCC(NC(=O)CCN)C2)cc1OC (centres unmarked) [Example 128]
58.9%	22.2%	COc1cc(/C=C2\SC(=O)NC2=O)c(N2CC[C@H](NC(=O)CCCCN)C2)cc1OC [Example 120, (S,Z)-5-amino-N-(1-(2-((2,4-dioxothiazolidin-5-ylidene)methyl)-4,5-dimethoxyphenyl)pyrrolidin-3-yl)pentanamide hydrochloride]
> 95%	87.4%	COc1cc(/C=C2\SC(=O)NC2=O)c(N2CC[C@H](NCCCN)C2)cc1OC [Example 121, (S,Z)-5-(2-(3-(3-aminopropylamino)pyrrolidin-1-yl)-4,5-dimethoxybenzylidene)thiazolidine-2,4-dione hydrochloride]
92.8%	23.3%	O=C1NC(=O)/C(=C/c2cc(C(F)(F)F)cc(Cl)c2N2CCC(N3CCCCC3)CC2)S1 [Example 31]
> 95%	67%	CN(C)[C@H]1CCN(c2ccc(C(F)(F)F)cc2C=C2SC(=O)NC2=O)C1 [Example 84H, (S)-5-(2-(3-(dimethylamino)pyrrolidin-1-yl)-5-(trifluoromethyl)benzylidene)thiazolidine-2,4-dione]
> 95%	> 95%	NCCCN1CCN(c2ccccc2/C=C2\SC(=O)NC2=O)CC1 [Example 127]

Structure (SMILES)	inhibition at 0.3 µM (human His-PIM1 [2-313])	inhibition at 0.3 µM (human His-PIM2 [23-299])
CN(C)C1CCN(c2ccc(N)cc2/C=C2\SC(=O)NC2=O)C1 (centres unmarked) [Example 151, (Z)-5-(5-amino-2-(3-(dimethylamino)pyrrolidin-1-yl)benzylidene)thiazolidine-2,4-dione]	31.5%	13.5%
COc1cccc(/C=C2\SC(=O)NC2=O)c1N1CCNCC1 [Example 97, (Z)-5-(3-methoxy-2-(piperazin-1-yl)benzylidene)thiazolidine-2,4-dione hydrochloride]	> 95%	86.4%
